ChEMBL document CHEMBL1201862, “PubChem BioAssay data set” (2004)
One block for each molecule: values may come before it. Active and inactive are the calls of the source.

Tests used:
Cytochrome P450 2C9 = Cytochrome P450 2C9 (Homo sapiens, UniProt P11712)
[1] = target: Dual specificity protein kinase CLK1 (Homo sapiens, UniProt P49759); assay: inhibition of human CLK1 activity – biochemical, cherry-picked samples, selectivity assay for Dyrk1A inhibitor project, dose response (AID 588811)
Cytochrome P450 2C19 = Cytochrome P450 2C19 (Homo sapiens, UniProt P33261); assay: Cytochrome panel assay with activity outcomes. Panel member name: p450-cyp2c19 Compounds with AC50 equal or less than 10 uM are considered active; format: functional; settings: read-out: AC50
[2] = target: Dual specificity tyrosine-phosphorylation-regulated kinase 1A (Rattus norvegicus, UniProt Q63470); format: biochemical, Homo sapiens
[3] = target: T1, Runt-related transcription factor 1/Core-binding factor subunit beta (Homo sapiens, UniProt Q01196+Q13951); assay: disruptors of Runt domain/CBFb-SMMHC interaction – biochemical, FRET, Cerulean-Runt, Venus-CBFb-SMMHC, uHTS, […] (AID 1434); format: protein assay
[4] = target: T1, Runt-related transcription factor 1/Core-binding factor subunit beta; assay: Runt domain/CBFb-SMMHC interaction disruptors – biochemical, TR-FRET (AID 1438); format: protein assay
Trypsin = Trypsin (Sus scrofa, UniProt P00761); assay: trypsin protease activity blockade – biochemical, quenched peptide fluorescence, cherry-pick, selectivity assay for Rce1 protease inhibitor project, dose response (AID 488789)
CAAX prenyl protease 2 = CAAX prenyl protease 2 (Homo sapiens, UniProt Q9Y256); assay: inhibition of Ras-converting CAAX protease Rce1 – biochemical, yeast membranes, quenched-peptide fluorescence, cherry-pick, dose response (AID 588849)
NIH3T3 = assay: mammalian cell viability counter-check – Alamar Blue, fluconazole, dry powder, cytotoxicity control for antifungal drug resistance project, dose response (AID 488809); format: functional, cell-based; settings: Mus musculus
Hexokinase HKDC1 = target: T2, Hexokinase HKDC1 (Homo sapiens, UniProt Q2TB90); assay: analog inhibition of human HKDC1 activity – biochemical, set 2, SAR follow-up (AID 588355); format: functional
T2 sequence (Q2TB90 whole entry): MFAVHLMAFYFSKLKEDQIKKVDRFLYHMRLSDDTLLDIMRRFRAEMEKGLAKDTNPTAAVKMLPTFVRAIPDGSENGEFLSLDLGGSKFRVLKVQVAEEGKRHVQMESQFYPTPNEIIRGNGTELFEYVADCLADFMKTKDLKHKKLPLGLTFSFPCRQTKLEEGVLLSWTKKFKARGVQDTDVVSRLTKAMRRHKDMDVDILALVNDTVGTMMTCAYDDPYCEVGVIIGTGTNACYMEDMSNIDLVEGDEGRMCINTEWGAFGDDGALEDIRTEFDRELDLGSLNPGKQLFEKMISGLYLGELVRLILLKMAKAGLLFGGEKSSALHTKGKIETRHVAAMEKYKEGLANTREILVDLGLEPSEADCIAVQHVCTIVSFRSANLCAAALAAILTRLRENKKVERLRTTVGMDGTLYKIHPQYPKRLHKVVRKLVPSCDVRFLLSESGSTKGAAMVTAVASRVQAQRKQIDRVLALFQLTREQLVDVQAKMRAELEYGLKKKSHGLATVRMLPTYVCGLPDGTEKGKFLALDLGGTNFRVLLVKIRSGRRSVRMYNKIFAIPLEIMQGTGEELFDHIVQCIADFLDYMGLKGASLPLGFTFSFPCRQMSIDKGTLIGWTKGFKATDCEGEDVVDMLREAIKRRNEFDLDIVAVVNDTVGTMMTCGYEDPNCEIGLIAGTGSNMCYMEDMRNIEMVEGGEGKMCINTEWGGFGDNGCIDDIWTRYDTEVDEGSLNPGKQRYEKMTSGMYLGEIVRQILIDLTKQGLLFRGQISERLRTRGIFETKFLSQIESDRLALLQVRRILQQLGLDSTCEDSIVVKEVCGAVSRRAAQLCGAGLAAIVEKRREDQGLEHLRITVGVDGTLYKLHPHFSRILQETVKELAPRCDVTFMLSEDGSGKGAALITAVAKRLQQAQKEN

Hexokinase-1 = target: T3, Hexokinase-1 (Homo sapiens, UniProt P19367); assay: hexokinase 1 activity inhibitors, potency – biochemical, set 2, resazurin fluorescence coupled readout, selectivity assay for HKDC1 inhibitor project, SAR follow-up (AID 588356); format: functional
T3 sequence (P19367 whole entry): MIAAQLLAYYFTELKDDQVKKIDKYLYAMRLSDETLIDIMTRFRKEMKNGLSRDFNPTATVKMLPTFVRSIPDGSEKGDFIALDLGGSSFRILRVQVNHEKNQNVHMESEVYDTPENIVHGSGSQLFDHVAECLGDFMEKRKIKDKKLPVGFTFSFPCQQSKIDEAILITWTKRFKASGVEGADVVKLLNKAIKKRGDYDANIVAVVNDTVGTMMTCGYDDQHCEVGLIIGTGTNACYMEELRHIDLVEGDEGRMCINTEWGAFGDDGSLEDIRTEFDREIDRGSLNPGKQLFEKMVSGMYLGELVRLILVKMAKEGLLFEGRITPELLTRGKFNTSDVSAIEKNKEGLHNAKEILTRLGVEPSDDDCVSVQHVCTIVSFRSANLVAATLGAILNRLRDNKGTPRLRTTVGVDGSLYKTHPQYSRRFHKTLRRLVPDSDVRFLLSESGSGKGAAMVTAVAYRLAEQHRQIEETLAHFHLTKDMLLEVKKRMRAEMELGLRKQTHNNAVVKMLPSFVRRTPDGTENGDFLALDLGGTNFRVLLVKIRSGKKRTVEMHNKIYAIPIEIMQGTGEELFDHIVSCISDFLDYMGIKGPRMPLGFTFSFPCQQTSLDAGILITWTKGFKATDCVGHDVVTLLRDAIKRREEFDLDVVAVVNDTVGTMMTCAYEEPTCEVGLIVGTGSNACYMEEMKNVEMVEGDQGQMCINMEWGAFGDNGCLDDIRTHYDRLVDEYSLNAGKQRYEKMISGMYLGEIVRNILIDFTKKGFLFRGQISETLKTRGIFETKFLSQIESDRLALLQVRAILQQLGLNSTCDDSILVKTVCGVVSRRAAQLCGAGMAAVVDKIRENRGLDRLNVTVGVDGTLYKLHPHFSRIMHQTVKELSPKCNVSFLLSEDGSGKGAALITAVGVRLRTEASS

Cytochrome P450 3A4 = Cytochrome P450 3A4 (Homo sapiens, UniProt P08684);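 also: CYP3A4 tested as one member of a cytochrome P450 panel screen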
[5] = target: Voltage-gated inwardly rectifying potassium channel KCNH2 (Homo sapiens, UniProt Q12809); settings: Potency;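 also: confirmatory quantitative high-throughput screen measuring inhibition of hERG channel activity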
Chain of Voltage-gated inwardly rectifying potassium channel KCNH2 (Q12809 whole entry): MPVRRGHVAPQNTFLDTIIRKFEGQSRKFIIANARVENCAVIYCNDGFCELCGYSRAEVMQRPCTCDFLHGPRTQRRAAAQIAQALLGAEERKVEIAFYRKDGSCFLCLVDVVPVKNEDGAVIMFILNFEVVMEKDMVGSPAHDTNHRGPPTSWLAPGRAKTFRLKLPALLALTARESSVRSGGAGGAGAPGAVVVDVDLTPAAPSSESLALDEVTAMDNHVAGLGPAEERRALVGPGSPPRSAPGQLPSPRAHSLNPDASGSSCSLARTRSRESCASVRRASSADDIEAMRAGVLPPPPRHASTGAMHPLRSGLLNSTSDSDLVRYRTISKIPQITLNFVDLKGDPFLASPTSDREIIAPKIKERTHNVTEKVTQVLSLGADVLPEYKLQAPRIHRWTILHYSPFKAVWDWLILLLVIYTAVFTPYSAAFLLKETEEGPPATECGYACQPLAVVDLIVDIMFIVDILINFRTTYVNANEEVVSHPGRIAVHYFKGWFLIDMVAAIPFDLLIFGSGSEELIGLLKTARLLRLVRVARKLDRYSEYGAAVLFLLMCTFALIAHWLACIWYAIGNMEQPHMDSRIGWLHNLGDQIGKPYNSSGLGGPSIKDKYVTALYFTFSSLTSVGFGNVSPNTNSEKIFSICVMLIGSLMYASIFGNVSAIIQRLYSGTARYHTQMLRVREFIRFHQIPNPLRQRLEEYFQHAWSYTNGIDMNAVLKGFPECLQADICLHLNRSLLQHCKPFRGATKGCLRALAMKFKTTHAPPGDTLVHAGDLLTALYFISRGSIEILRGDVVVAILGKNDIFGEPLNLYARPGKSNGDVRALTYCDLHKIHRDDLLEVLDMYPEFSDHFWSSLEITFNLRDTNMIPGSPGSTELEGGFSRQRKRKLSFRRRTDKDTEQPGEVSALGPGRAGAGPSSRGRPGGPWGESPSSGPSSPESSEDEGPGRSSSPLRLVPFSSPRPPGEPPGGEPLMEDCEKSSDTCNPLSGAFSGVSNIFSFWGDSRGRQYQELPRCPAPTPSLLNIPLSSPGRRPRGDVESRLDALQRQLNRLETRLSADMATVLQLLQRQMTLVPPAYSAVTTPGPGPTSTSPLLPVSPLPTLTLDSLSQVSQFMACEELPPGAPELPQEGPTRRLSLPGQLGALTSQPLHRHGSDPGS

T1 sequence (Q01196 whole entry, the tested form may be a part): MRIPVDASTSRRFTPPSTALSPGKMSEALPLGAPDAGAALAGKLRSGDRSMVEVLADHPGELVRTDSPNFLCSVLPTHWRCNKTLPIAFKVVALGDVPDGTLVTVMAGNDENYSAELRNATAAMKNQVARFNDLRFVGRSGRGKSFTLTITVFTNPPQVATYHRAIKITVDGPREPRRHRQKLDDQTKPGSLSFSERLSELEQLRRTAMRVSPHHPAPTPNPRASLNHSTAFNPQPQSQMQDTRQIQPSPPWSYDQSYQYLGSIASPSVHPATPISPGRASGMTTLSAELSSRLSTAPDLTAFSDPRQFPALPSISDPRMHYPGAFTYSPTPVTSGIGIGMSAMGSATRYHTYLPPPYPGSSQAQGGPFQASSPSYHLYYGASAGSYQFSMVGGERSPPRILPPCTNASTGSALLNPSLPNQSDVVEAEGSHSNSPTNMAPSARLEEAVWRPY
T1 sequence (Q13951 whole entry, the tested form may be a part): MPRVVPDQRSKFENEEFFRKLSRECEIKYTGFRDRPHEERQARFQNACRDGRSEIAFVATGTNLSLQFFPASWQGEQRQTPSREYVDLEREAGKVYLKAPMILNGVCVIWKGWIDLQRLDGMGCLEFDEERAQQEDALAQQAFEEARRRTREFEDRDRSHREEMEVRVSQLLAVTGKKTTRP
Chain of Cytochrome P450 3A4 (P08684 whole entry): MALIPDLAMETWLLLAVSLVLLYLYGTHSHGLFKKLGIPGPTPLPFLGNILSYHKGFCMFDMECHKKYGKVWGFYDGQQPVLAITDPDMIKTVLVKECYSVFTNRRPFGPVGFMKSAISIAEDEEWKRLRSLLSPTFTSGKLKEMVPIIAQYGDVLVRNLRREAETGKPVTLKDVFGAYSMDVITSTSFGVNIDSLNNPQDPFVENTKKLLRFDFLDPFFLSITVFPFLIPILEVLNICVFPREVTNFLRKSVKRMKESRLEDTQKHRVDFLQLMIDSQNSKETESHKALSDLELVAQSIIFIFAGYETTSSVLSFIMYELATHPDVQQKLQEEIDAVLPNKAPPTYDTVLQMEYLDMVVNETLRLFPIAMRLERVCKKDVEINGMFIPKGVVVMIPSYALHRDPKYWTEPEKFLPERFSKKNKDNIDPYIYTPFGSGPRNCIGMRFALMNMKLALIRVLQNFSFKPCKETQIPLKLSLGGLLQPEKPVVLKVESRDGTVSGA
Chain of Cytochrome P450 2C9 (P11712 whole entry): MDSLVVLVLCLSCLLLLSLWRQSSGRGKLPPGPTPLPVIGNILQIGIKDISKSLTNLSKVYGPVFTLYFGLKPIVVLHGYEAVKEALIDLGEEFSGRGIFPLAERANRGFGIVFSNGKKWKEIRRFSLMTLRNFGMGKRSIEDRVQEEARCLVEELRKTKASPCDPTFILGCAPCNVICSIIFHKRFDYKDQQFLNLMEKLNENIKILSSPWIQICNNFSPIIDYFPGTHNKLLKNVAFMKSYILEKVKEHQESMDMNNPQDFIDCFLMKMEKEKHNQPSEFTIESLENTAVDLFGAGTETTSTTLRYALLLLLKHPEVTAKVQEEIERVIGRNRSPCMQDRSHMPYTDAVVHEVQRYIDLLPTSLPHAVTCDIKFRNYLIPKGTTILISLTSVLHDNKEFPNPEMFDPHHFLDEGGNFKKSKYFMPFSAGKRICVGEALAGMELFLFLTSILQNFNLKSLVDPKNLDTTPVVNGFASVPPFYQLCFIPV
Chain of Dual specificity protein kinase CLK1 (P49759 whole entry): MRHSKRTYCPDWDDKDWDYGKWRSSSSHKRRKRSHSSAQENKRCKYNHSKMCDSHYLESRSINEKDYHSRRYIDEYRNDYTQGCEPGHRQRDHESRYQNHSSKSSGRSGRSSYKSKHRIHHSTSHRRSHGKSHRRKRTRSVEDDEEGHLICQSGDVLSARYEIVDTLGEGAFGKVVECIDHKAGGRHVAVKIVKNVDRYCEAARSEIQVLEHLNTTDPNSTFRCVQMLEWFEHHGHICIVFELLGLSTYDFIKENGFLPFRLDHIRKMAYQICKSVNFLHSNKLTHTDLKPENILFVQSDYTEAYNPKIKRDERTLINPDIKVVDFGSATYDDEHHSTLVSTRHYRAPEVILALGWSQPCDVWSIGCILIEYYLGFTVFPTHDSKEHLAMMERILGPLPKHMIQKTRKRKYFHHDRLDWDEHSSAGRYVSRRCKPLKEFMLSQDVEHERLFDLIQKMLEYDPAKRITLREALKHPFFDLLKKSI
Chain of CAAX prenyl protease 2 (Q9Y256 whole entry): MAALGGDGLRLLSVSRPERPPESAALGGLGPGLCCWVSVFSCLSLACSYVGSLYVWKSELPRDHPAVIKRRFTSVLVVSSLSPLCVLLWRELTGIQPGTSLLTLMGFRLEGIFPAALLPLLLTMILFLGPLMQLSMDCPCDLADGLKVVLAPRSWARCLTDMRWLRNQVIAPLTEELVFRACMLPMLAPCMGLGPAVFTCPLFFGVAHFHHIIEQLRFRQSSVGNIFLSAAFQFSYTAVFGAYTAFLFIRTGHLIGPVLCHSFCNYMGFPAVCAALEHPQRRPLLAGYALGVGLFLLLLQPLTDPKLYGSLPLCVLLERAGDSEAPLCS
Chain of Trypsin (P00761 whole entry): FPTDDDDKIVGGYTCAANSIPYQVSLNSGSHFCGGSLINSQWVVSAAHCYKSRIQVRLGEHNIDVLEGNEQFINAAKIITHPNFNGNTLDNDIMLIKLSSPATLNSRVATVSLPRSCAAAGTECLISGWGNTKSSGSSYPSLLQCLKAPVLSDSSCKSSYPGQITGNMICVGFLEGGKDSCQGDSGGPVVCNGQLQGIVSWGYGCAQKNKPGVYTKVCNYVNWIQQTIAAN
Chain of Cytochrome P450 2C19 (P33261 whole entry): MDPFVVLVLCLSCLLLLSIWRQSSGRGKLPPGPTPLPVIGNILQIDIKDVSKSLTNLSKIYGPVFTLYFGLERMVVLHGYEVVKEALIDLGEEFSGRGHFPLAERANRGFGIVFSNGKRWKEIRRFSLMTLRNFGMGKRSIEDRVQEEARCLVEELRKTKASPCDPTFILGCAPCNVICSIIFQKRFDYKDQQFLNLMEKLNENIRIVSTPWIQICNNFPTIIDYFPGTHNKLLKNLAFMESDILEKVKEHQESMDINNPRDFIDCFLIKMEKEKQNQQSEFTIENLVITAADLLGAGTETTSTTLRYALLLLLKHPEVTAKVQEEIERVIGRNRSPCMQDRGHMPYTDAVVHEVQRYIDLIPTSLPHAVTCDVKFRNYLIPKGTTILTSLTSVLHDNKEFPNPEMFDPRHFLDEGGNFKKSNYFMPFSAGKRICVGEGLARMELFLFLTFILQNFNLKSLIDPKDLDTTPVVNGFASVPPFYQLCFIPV

SMILES: c1cncc(CNc2cc(-c3ccc4c(c3)OCO4)ncn2)c1
AC50 (Cytochrome P450 2C9): 0.316 µM (inconclusive)
AC50 [1]: 5.2 µM (active)
AC50 (Cytochrome P450 2C19): 25.1 µM (inconclusive)

SMILES: Cc1ccc(S(=O)(=O)Oc2ccc(C3C4=C(CCCC4=O)N(CCC(=O)O)C4=C3C(=O)CCC4)cc2Cl)cc1
IC50 [3]: 0.393 µM (active)
IC50 [4]: 14.6 µM (active)
AC50 (Trypsin): 6.27 µM (active)
AC50 (CAAX prenyl protease 2): 11.4 µM (active)

SMILES: O=C(c1ccc(Cl)cc1)N1CCN(c2cc(C(F)(F)F)nc3ccccc23)CC1
AC50 (NIH3T3): 23.2 µM (active)

Further lines, with some results ahead:

AC50 [2]: 2.01 µM (active)
SMILES: COc1ccc2c(c1)CCc1sc(NC(=O)c3ccco3)nc1-2

IC50 (Hexokinase HKDC1): > 80 µM (inactive)
IC50 (Hexokinase-1): > 80 µM (inactive)
SMILES: Cc1ccc(N2C(=O)c3cccnc3C2Nc2ccc(C)c(C)c2)cc1 (stereo not drawn)

AC50 (Cytochrome P450 3A4): inconclusive
SMILES: O=S(=O)(O)C1CCNCC1
AC50 [5]: 22.4 µM (inconclusive)
